In patent publication US20030203404A1, “Bioluminescence resonance energy transfer( bret) system with broad spectral resolution between donor and acceptor emission wavelengths and its use” (priority 1999, published 2003):
Read-outs that look alike come from different tables or passages of the source.

How the values were obtained:
[1] = Coelenterazine 400a stock solution stability (luminescence with CHO cells expressing Rluc, BRETCount); assay type: physicochemical
Protocol: Coelenterazine stability: Three different stock solutions of coelenterazine 400a (dissolved in anhydrous ethanol), prepared at different times, were tested using the BRETCount. CHO cells were transiently transfected with pcDNA3.1-Rluc only. Forty-eight hours later, 50 000 cells in complete BRET buffer were distributed in wells (96-well white Optiplate). Coelenterazine 400a from the various stocks were then added to start the bioluminescent reaction. […] A reduction of 22% is observed for the older stock (made Feb. 19, 1999) compared to a stock freshly made (Aug. 6, 1999). […].
FIG. 9 represents the same bioluminescent reactions as in FIG. 8 but at t=5 min after addition of the coelenterazines. In this case no significant difference was observed between the various coelenterazine stocks.
Coel400a stored for a longer period of time (6 months), does show a loss of potential but it remains acceptable and workable for the BRET system.

[2] = test system: HeLa cells transfected with the GFP1:Caspase-3:Rluc sensor; assay: BRET apoptosis sensor assay; assay type: cell-based; conditions: staurosporine 1 μM, 5 hours
Protocol: PGFP1:caspase-3:Rluc DNAs and the original plasmid pGFP1::Rluc (without the caspase-3 site) were transfected into HeLa cell using LipofectAMINE (BRL/Gibco-Life technologies) in 100 mm dishes and 8 μg of plasmid DNA as described in the manufacturer's protocol. Twenty-four hours post-transfection transfected cells were harvested and distributed into 96-well microtiterplate (white Optiplate from Packard) at a density of 30 000 cells per well. […] Cells were incubated for 5 hours at 37° C. After this period, 50 μl of BRET buffer (PBS Ca^2+/Mg^2++glucose without aprotinin) and 50 μl of DeepBlueC (20 μM) were added to start the bioluminescence reaction. Total assay volume was 200 μl. Light emissions were detected using the BRETCount (read length of 1 sec. for each filter, SPC mode, temperature 25° C.).

V2-R = V2-R (Homo sapiens, UniProt P30518); conditions: AVP 50 nM, 20 minutes
Protocol: BRET assays: HEK293 cell line were transiently co-transfected using the donor and acceptor fusion construct DNAs and LipofectAMINE 2000 (Life Technologies) in 100 mm dishes as described in the manufacturer's protocol. For the transfections, a DNA ratio of 4 μg:46 μg (donor fusion construct: acceptor fusion construct) was used. The donor fusion constructs were the V2-R:Rluc (h) fusion constructs and the acceptor fusion construct was either the pcDNA3.1hyg/GFP1:β-arrestin2 or the pcDNA3.1hyg/β-arrestin2:GFP1. […] Fifty thousand transfected cells per well were added to white 96-well plates (Optiplate, Packard Instrument Company). […] Cells were then incubated for 20 minutes at room temperature in a total volume of 37.5 μl. After the incubation period, 12.5 μl of DeepBlueC at 20 μM (also called Coel400a) was added in each well (final concentration of 5 μM). Final assay volume was 50 μl. Donor and acceptor light outputs were quantified with the Fusion microtiterplate analyzer (Packard Instrument Company) using the following instrument setting:
Read length: 1 sec per well per filter.
Results represent the mean+/−SEM of quadruplicate wells. […] In all cases, background levels (wells with only DBC in PBS+) were subtracted.

V2 receptor = V2 receptor (Homo sapiens, UniProt P30518); conditions: saturating dose, V2-Rluc + β-arrestin2-GFP, FIG. 22
Protocol: The Rluc (BDP) was fused to the C-terminus of the GPCR and the GFP (FAM) was fused to the C-terminus of β-arrestin. Therefore, shortly after ligand binding (5-30 minutes) the BRET ratio should increase due to binding of β-arrestin to the GPCR, which brings the GFP in proximity to Rluc.
HEK293 cell line were transiently transfected using the DNA constructs and LipofectAMINE™ 2000 (BRL/Gibco) in 100 mm dishes as described in the manufacturer's protocol. […] Bioluminescent reactions were analysed using the BRETCount with appropriate filters.
Transfected cells were added (50 000 cells (in BRET buffer) per well) to the wells in white 96-well plates (Optiplate, Packard Instrument). […] In the other half, BRET buffer, alone, was added. Cells were then incubated for 10-20 minutes at room temperature before adding the coel400a. The analysis was performed at 25° C., integration time 2 sec per wavelength in luminescence mode. The filters used were: for Rluc emission 410DF80 (from Omega); for GFP D515/50M (from Chroma). Coel400a, at a working concentration of 40 μM (final 5 μM), was added to each well to start the bioluminescent reaction. The final reaction volume was 50 μl. Assays were done in quadruplicate.
For all fusion constructs, a 6 amino acid linker was inserted, between the Rluc or GFP and the receptor (β2, β3 or V2) or β-arrestin2. […]

## O=c1c(Cc2ccccc2)nc2c(Cc3ccccc3)[nH]c(-c3ccccc3)cn1-2 [Coelenterazine 400a, phenylcoelenterazine]
[1]; stock in anhydrous ethanol made Feb. 19, 1999 compared to stock freshly made (Aug. 6, 1999)
  reduction of luminescent signal immediately after addition of the substrate: 22%
[1]; stock in anhydrous ethanol made Jul. 22, 1999 compared to stock freshly made (Aug. 6, 1999)
  luminescence reduction immediately after addition of the substrate: did not demonstrate significant luminescence reduction

## CN[C@@H]1C[C@H]2O[C@@](C)([C@@H]1OC)n1c3ccccc3c3c4c(c5c6ccccc6n2c5c31)C(=O)NC4 [staurosporine]
[2]; cells transfected with pGFP1:caspase-3:Rluc, time zero
  BRET ratio change (decrease): 0.72 unit
[2]; cells transfected with pGFP::Rluc (without the caspase-3 site)
  change in BRET ratio: No change

## Arg^8-vasopressin [AVP]
V2-R; V2-R:Rluc + GFP1:β-arrestin2, 10 min after DeepBlueC
  BRET signal in presence of AVP: 0.129
V2-R; V2-R:Rluc + β-arrestin2:GFP1, 10 min after DeepBlueC
  BRET signal in presence of AVP: 0.087
V2 receptor
  BRET ratio in the presence of the agonist: increased
